Reference: publication PMC9785202, “Changes in Disposition of Ezetimibe and Its Active Metabolites Induced by Impaired Hepatic Function: The Influence of Enzyme and Transporter Activities” (Pharmaceutics, 2022)

Assays:
liver slices = assay: Uptake of EZE-Ph in liver slices of control and CCl4-induced rats; format: in vitro ADME, rat; details: 10 μM EZE-Ph, 10 min
Description: Liver slices were prepared as previously described elsewhere. Rats were anesthetized and sacrificed via exsanguination from the abdominal aorta, and the livers were excised. Liver cylindrical cores of an 8 mm diameter were made before slicing. Liver slices with a thickness of 300 μm were obtained using a Krumdieck tissue slicer MD6000 (TSE systems, Chesterfield, MO) with ice-cold and carbogen-saturated Krebs–Henseleit buffer.
After 5 min of preincubation at 4 and 37 °C, the liver slices were transferred to 24-well plates containing 500 μL of buffer with 10 μM EZE-Ph for 10 min. After incubation, the liver slices were washed 3 times with ice-cold HBSS and dried on filter paper. Each liver slice was homogenized with 200 μL of purified water and the protein content was determined using a BCA protein assay kit. The concentration of EZE-Ph was determined using LC-MS/MS.

OATP1B1 = biological target: T1, OATP1B1 (Homo sapiens, UniProt Q9Y6L6); assay: Uptake of EZE-Ph into OATP1B1-transfected HEK293 cells; format: in vitro ADME
T1 construct: host or cells: HEK293
T1 sequence (Q9Y6L6 1-691): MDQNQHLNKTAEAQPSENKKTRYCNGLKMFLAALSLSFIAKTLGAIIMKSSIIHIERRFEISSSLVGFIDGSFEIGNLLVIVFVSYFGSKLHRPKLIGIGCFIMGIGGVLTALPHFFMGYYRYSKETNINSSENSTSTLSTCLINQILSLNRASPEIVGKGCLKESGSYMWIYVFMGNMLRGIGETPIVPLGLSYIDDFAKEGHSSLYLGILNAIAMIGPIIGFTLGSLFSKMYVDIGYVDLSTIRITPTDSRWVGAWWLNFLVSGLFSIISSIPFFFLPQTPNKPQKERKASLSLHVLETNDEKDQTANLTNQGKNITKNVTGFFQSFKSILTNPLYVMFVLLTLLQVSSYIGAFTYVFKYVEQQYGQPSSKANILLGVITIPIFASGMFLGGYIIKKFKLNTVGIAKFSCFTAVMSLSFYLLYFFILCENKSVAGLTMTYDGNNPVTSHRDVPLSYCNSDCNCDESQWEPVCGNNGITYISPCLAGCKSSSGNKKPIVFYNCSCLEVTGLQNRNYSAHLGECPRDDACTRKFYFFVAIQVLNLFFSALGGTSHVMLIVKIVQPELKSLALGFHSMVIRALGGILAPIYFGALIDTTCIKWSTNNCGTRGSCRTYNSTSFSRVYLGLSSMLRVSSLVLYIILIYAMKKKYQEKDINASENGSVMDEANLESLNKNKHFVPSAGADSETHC
Description: The kinetic parameters and the half inhibitory concentration (IC50) were calculated using GraphPad Prism. […] The intrinsic clearance (CLint) was calculated as CLint = Vmax/Km.

EZE-Ph uptake in liver slices, 37 °C vs 4 °C (liver slices): significantly greater at 37 °C than 4 °C
EZE-Ph uptake in liver slices, control vs CCl4-induced rats (liver slices): no significant difference
uptake in transporter-transfected cells relative to mock-transfected cells (OATP1B1; 10 μM EZE-Ph, OATP1B1 HEK293): 5.3 times
CLint (OATP1B1; OATP1B1 HEK293, CLint = Vmax/Km): 0.56 μL/min/mg Protein
Kinetic Model (OATP1B1; OATP1B1 HEK293, uptake time 5 min): Substrate inhibition
SMILES: O=C(O)[C@H]1O[C@@H](Oc2ccc([C@@H]3[C@@H](CC[C@H](O)c4ccc(F)cc4)C(=O)N3c3ccc(F)cc3)cc2)[C@H](O)[C@@H](O)[C@@H]1O [EZE-Ph, ezetimibe phenoxy β-D-glucuronide]
